Assay results published in article PMC3830934 (Science (New York, N.Y.), 2002).
pKi: −log10 of the molar value.

Molecular target: T1, human DHFR (Homo sapiens, UniProt P00374)
T1 sequence (P00374 1-187): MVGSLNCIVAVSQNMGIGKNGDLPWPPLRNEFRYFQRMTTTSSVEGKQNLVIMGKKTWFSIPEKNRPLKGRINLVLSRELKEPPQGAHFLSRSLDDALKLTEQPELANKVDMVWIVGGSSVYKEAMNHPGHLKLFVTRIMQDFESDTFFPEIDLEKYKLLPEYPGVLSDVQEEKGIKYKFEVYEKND
Experiment: enzyme kinetic assay
Format: biochemical

SMILES: CC1(C)N=C(N)N=C(N)N1OCCCOc1cc(Cl)c(Cl)cc1Cl [WR99210]
- pKi: 7.92
